In patent US20260207600A1, “METHODS OF TREATMENT WITH MYOSIN MODULATOR” (MYOKARDIA, INC., priority 2019, published 2026):
Entries after “also recorded” stand apart in the source; their conditions may differ. Read-outs that look alike come from different tables or passages of the source.

Assays:
CYP2C19 = CYP2C19 (Homo sapiens, UniProt P33261); assay: In vitro contribution of CYP enzymes to mavacamten metabolism; type: in vitro ADME
[1] = Half-life and clearance analysis from early clinical studies by CYP2C19 metabolizer phenotype; type: in vivo, human; conditions: for half-life / clearance: oral; for clearance: read-out: clearance rate
Experimental: The effect of CYP2C19 phenotype and genotype on the metabolism function of the CYP2C19 enzyme has been presently investigated. […] Specifically, normal metabolizers typically have a half-life of from about 6 to about 9 days, e.g., about 7 days (1 week), whereas poor metabolizers have a longer half-life, e.g., from about 12 to about 30 days, or often from about 16 to about 28 days based on current data in humans.
Half-life and clearance rate were analyzed after a single oral dose. Clearance rate was calculated as CL=Dose*F/AUCinf. […] Half-life and clearance rate were analyzed after the last dose upon reaching steady state. Clearance rate was calculated as CL,ss=Dose*F/AUC(0-T). Both trials were combined and analyzed by one-way ANOVA, followed by Tukey's multiple comparison test.
UM (rapid/ultra-rapid metabolizer) is *1/*17 or *17/*17; EM (extensive metabolizer) is *1/*1; IM (intermediate metabolizer) is *1/*2 or *17/*2; and PM (poor metabolizer) is *2/*2 or *2/*3.
Similar studies were performed for CYP3A5 and CYP2C9 polymorphisms.

[2] = system: subjects with obstructive HCM; conditions: human, in vivo; cited from earlier work
[3] = system: conscious Sprague-Dawley rats; assay: Positive inotropic challenge (dobutamine, levosimendan) after supra-therapeutic mavacamten, echocardiography; type: in vivo, rat; conditions: supra-therapeutic dose, healthy rats
Experimental: Methods: The responsiveness of mavacamten-induced cardio-depression to positive inotropic challenges was assessed in a set of conscious Sprague-Dawley rats. In these animals, functional reserve was assessed via either dobutamine (+DOB, 10 μg/kg/min IV for 10 min, n=7) or levosimendan (+LEVO, 0.3 μmol/kg IV over […]; n=6) challenges given 3 hrs following a single-dose administration of MAVA (at 4 mg/kg, PO). Cardiac function/geometry were recorded and compared at three separate time-points/days: prior to dosing (i.e., at baseline) and at 3 hrs post-dosing both before as well as during the inotropic challenge; in order to account for the levosimendan-induced changes in loading conditions, an additional echocardiographic examination was performed following acute preload-restoration in LEVO-treated rats (+LEVO/F, 0.9% NaCl at 30 mL/kg/hr IV).
In these experiments, left-ventricular fractional shortening (FS), an index of systolic performance, as well as LV dimensions/volumes and heart rates were measured using a high-frequency transducer and parasternal long-axis transthoracic views (Vevo2100, VisualSonic). FS was defined as the end-diastole normalized change in internal dimensions/diameter of the left ventricle between end-systole (LVESd) and end-diastole (LVEDd) (i.e., FS=100·[LVEDd−LVESd]/LVEDd). LV volumes were derived assuming a Teichholz model (LVV=7·[2.4+LVid]−1·LVid3).

anaesthetized rats = assay: Counteraction of mavacamten effects by dobutamine in anaesthetized rats; type: in vivo, rat
Text: Additional supportive measures, e.g., intravenous volume supplementation and/or the use of arterial vasoconstrictor agents (a adrenergic agonists) may complement the use of a β adrenergic agonist.

[4] = Stable form analysis (slurry experiments, XRPD); type: physicochemical; conditions: for XRPD Result (stable form screening): Lot 2-4
Experimental: Slurrying. Slurries of the API were prepared by adding sufficient solids to a given solvent or solvent system at ambient conditions or at elevated temperature such that undissolved solids were present. The mixtures were then agitated in a closed vial at ambient or elevated temperature for an extended period of time. Solids were collected by vacuum filtration and analyzed.
A stable form analysis of the API (Lot 2-4) was performed to identify the preferred solid form within typical process conditions (e.g., ambient to 85° C., atmospheric pressure, with a variety of solvents including water).
A total of 17 slurries were held stirring at ambient temperature or with temperature cycling between 20 and 30 or 40° C. (with a few brief exposures to approximately 46° C.) for extended time periods (Table 13.4). Solids from the slurry experiments were filtered, air-dried, then analyzed by XRPD.

[5] = system: subjects with symptomatic non-obstructive hypertrophic cardiomyopathy (nHCM); assay: […]-HCM Phase 2 randomized, double-blind, placebo-controlled, concentration-guided study; type: in vivo, human; conditions: baseline and week 16
[6] = human, in vivo, CYP2C19 normal metabolizers
[7] = human, in vivo, CYP2C19 poor metabolizers

Chain of CYP2C19 (P33261 whole entry): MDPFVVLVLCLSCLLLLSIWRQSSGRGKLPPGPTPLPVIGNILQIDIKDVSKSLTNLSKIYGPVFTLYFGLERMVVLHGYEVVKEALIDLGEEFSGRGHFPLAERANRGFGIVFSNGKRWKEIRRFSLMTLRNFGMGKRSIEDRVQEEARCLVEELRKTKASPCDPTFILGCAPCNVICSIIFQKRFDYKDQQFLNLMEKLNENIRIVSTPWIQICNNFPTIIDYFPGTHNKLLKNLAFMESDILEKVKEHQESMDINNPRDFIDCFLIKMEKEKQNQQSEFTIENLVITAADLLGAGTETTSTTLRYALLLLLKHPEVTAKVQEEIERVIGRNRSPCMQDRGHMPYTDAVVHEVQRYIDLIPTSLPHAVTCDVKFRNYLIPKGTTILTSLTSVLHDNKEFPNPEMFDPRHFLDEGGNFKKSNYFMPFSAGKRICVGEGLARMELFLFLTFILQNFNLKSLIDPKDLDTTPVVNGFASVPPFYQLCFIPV

## CC(C)n1c(=O)cc(N[C@@H](C)c2ccccc2)[nH]c1=O [mavacamten, (S)-3-Isopropyl-6-((1-phenylethyl)amino)pyrimidine-2, 4(1H,3H)-dione]
CYP2C19
  percent contribution to the metabolism of mavacamten: 74%
[1]; CYP2C19 poor metabolizers vs other patients (UM, EM and IM)
  clearance and terminal half-life by phenotype: lower clearance and longer terminal half-life
[1]; PM genotype compared to normal CYP 2C19 metabolizer (NM) genotype
  increase in exposure: approximately 4 fold
[1]; human, in vivo
  effect of CYP3A4/5 (CYP3A5) and CYP2C9 polymorphisms on pharmacokinetics (half-life, clearance rate): insignificant effects; also recorded: did not have a significant effect
[1]; [6]
  half-life: 6 to 9 days
  clearance: 10 to 100 mL/min
[1]; [7]
  half-life: 12 to 30 days
  clearance: < 15 mL/min
[2]
  Obstruction of the left ventricular outflow tract: reduced or eliminated the obstruction of the left ventricular outflow tract
[3]
  reduction in ejection fraction: ~50%
Anaesthetized rats
  Reversal of pharmacologic effects by β adrenergic agonist: can be counteracted by β adrenergic agonists
[4]; 17 slurries, ambient temperature or cycling between 20 and 30 or 40° C., extended time
  solid form obtained from slurry experiments (XRPD): All slurry experiments yielded Form A, except one with chloroform
[4]; Anisole, Slurry, ~50° C., 4 d
  XRPD Result (stable form screening): Form A
[4]; CHCl3, TC, 20 to 30° C., 10 d
  XRPD Result (stable form screening): Form A +
[4]; DCM, Slurry, RT, 17 d
  XRPD Result (stable form screening): Form A
[4]; DMF:CHCl3 (20:80), Slurry, RT, 17 d
  XRPD Result (stable form screening): Form A
[4]; DMF:EtOH (20:80), Slurry, RT, 17 d
  XRPD Result (stable form screening): Form A
[4]; DMSO:water (90:10), Slurry, RT, 3 d, TC, 20 to 30° C., 10 d
  XRPD Result (stable form screening): Form A
[4]; EtOAc, TC 20 to 40° C., 10 d
  XRPD Result (stable form screening): Form A
[4]; EtOH, TC 20 to 40° C., 10 d
  XRPD Result (stable form screening): Form A
[4]; HFIPA:acetone (10:90), Slurry, RT, 17 d
  XRPD Result (stable form screening): Form A
[4]; MIBK, Slurry, ~80° C., 1 d
  XRPD Result (stable form screening): Form A
[4]; MeOH, Slurry, RT, 3 d, TC, 20 to 30° C., 10 d
  XRPD Result (stable form screening): Form A
[4]; NMP:MeOH (10:90), Slurry, RT, 17 d
  XRPD Result (stable form screening): Form A
[4]; NMP:toluene (80:20), Slurry, RT, 17 d
  XRPD Result (stable form screening): Form A
[4]; NMP:water (50:50), Slurry, RT, 17 d
  XRPD Result (stable form screening): Form A
[4]; THF:water (75:25), TC, 20 to 30° C., 10 d
  XRPD Result (stable form screening): Form A
[4]; THF, Slurry, RT, 3 d, TC, 20 to 40° C., 10 d
  XRPD Result (stable form screening): Form A
[4]; iPrOH, TC, 20 to 40° C., 10 d
  XRPD Result (stable form screening): Form A
[5]
  hs-cTnI, post-hoc analysis of banked serum samples: confirmed the reduction in cTnI
